Results: patent publication US11523995B2, “Compositions and methods for ablating niche cells in testis and other epithelial cells and methods relating thereto” (Duke University, priority 2017, dated 2022)
“Also recorded” adds a separate entry of the source.

Assays:
Sertoli cells = experiment: Adult Sertoli cell depletion in vivo (injection into rete testis); parameters: species or system mouse
Procedure: Host mice were anesthetized. A glass needle was back-loaded with the drug and 0.02% bromophenol blue to track the success of the injection and extent of delivery into the tissue. The mixture was injected into the rete-testis.
Adult mouse testis and canine testis tissues were fixed in 4% (wt/vol) paraformaldehyde in PBS at 4° C. overnight and cryoembedded in OCT compound (Sakura Finetek). Samples were cut into 14-μm-thick cryosections. Incubation with primary antibodies was performed overnight at 4° C., followed by 2 washes, and incubation with secondary antibodies for 1 h at room temperature. Nuclei were counterstained with Hoechst 33342 dye. Samples were mounted on glass slides and imaged with a confocal laser microscope (Zeiss 780).
We injected a solution of 0.02% BC (or PBS as a control) into the rete testis of anesthetized adult male mice to test the effects of the drug on adult Sertoli cells. To detect Sertoli cells easily, we used a Sox9-ECFP transgenic mouse (FIG. 5). […] However, four days after treatment, Sertoli cells had disappeared from approximately 30-40% of seminiferous tubules.

[1] = tested on: bladder epithelial cells, urothelium; experiment: BC injection into bladder in vivo; parameters: species or system mouse
Procedure: 2 months old female mice were anesthetized using Avertin or Isoflurane as anesthetic. Using forceps, the top of the urethral orifice was pinched and pulled up without obstructing the urethra at a ˜45° angle. The catheter tubing end was attachded to a 1 mL syringe, and the tip of the tubing rubbed in medicine mineral jelly. The jelly-topped catheter was carefully inserted into the urethra at a ˜45° angle. The syringe was detached from the catheter, and the mouse's stomach was palpated to produce urine. Using another syringe and catheter, the urine that is produced was aspirated, and emptied into other towel. 20 uL of the BC solution (or PBS) was pipetted directly into the catheter using a pipet tip. It was ensured that the pipet tip contacted the catheter, then the cylinder was fully depressed for ˜3 seconds. The liquid was pushed into the bladder by injecting ˜20 uL of air using a syringe. The catheter was removed and the mouse put back into its cage.
We injected a solution of 0.004%, 0.06% BC into the bladder of anesthetized adult female mice to test the effects of the drug on bladder epithelial cells, urothelium. […] However, six days after treatment, urothelium had disappeared from approximately 80% of 0.06% BC treated bladder, some mesenchymal cells were found on straining with antibodies against PDGFRβ and NG2.

host spermatogenesis = experiment: Donor Sertoli cell transplantation into testis 4 days post BC treatment; type: in vivo, mouse; settings: 0.02% BC 4 days before Sox9-ECFP Sertoli cell transplantation; 8 weeks after transplantation
Procedure: On the day of transplantation, FACS analysis was used to isolate donor Sertoli cells. Testes of Sox9-CFP mouse pups were dissected. Testicular cells were enzymatically dissociated using 1 mg/ml collagenase type IV for 15 minutes followed by incubation in 0.25% trypsin and 1 mM EDTA for 10 min at 37° C. The reaction was stopped by addition of serum and cells were washed twice. The cell suspension was filtered through a 40 μm nylon mesh and resuspended in 10% FBS+DMEM.
(§1) 10-15 μl of approximately 1×10^6/ml isolated Sertoli cells or 1×10^8/ml (testicular cells) were injected through the rete testis into the seminiferous tubules of a host mouse on day 4 or day 7 after ablation treatment. A glass needle was back-loaded with the cell suspension and 0.04% Trypan blue to track the efficiency of the injection.
To determine whether donor Sertoli cells can efficiently engraft drug-depleted cords, we transplanted Sertoli cells from 6.5-10.5 dpp Sox9-ECFP mouse pups. The host mouse was prepared by injection of the 0.02% BC solution 4 days prior to transplantation. Cells from a neonatal Sox9-ECFP donor testis were dissociated by enzymatic treatment, Sertoli cells were isolated by FACS, and injected into host seminiferous tubules through the rete testis (FIG. 6). […] Full spermatogenesis was detected 8 weeks after transplantation in 2 of 4 engrafted testes.

donor spermatogenesis = experiment: Cryopreserved donor testicular cell transplantation into BC treated testis; type: in vivo, mouse; settings: cryopreserved (39 days) cells transplanted 7 days after BC; eight weeks after transplantation
Procedure: After dissociation and washing steps, samples were placed in 2.0 ml cryovials (Corning, N.Y., USA) containing 500 μl of cryopreservation medium, (10% FBS+DMEM containing 10% DMSO). Samples were placed in a controlled freezing device (Mr. Frosty™ Freezing Container, Thermo Fisher Scientific) and cooled in a −80° C. freezer overnight. The following morning the cryovials were transferred to Liquid nitrogen for storage. Prior to use, samples were thawed quickly in a bath warmed to 37° C.
as §1
To test the efficiency of engraftment using cryopreserved donor tissue, we dissociated testis tissue from CAG-EGFP pups, and cryopreserved cells with cryoprotectant including 10% DMSO in liquid nitrogen. Seven days after BC treatment of wild type host mice, cryopreserved (39 days) donor testicular cells were thawed and introduced into the rete testis (FIG. 8). […] In some tubules, cryopreserved Sertoli cells supported host spermatogenesis, and in other tubules, cryopreserved donor Sertoli cells colonized with donor SSCs and supported donor spermatogenesis.

## benzalkonium chloride [BC]
Sertoli cells; 0.02% BC into rete testis, day 3
  Sertoli cell depletion based on SOX9 expression: Sertoli cell depletion was not detected
Sertoli cells; 0.02% BC into rete testis, four days after treatment
  seminiferous tubules from which Sertoli cells had disappeared: 30-40%
Sertoli cells; 0.02% BC, 4 days after treatment
  Caspase3 positive Sertoli cells (apoptosis): did not detect Caspase3 positive Sertoli cells
Sertoli cells; 0.02% BC, day 4
  Leydig cells and endothelial cells (3βHSD, PECAM1): not obviously affected
  PMCs (SMA staining): PMCs were intact
  SSCs in drug affected tubules (STRA8, Hu C/D, c-KIT): some SSCs were found along the basal lamina
  basic tubular structure (anti-Laminin staining): basic tubular structure was also intact
  macrophage invasion and proliferation (F4/80): many macrophages positive for F4/80 surrounded the affected tubules and some had invaded inside
Sertoli cells; 4 days after 0.02% BC treatment
  Sertoli cell elimination (summary): Sertoli cells were eliminated
Sertoli cells; mouse, BC injection
  system-wide / side effects after drug injection into rete testis: no apparent system-wide effects; also recorded: no discernable side effects
[1]; 0.004% BC
  inflammation in bladder: did not cause inflammation
[1]; 0.004% BC, day 6
  urothelium depletion: urothelium depletion was not detected
[1]; 0.03% BC (so in the source)
  macrophage invasion in bladder: Macrophage invasion were observed
[1]; 0.06% BC, day 6
  urothelium detachment in the lumen of the bladder: urothelium detachment was observed
[1]; 0.06% BC, six days after treatment
  part of treated bladder from which urothelium had disappeared: approximately 80%
Host spermatogenesis
  engrafted testes with full spermatogenesis: 2 of 4
Donor spermatogenesis
  host testes colonized by cryopreserved Sertoli cells and SSCs: 3/3
  hosts with full spermatogenesis from donor cells: 2
